Results: patent US20170027172A1, “USE OF SUBSTITUTE OXO TETRAHYDROQUINOLINE SULFONAMIDES OR SALTS THEREOF FOR RAISING STRESS TOLERANCE OF PLANTS” (BAYER CROPSCIENCE AKTIENGESELLSCHAFT, priority 2014, published 2017)

Each compound was assayed against T1, phosphatase ABI1 via the co-regulator RCAR11/PYR1 (Arabidopsis thaliana, UniProt O49686+P49597) (assay: In vitro inhibition of the phosphatase ABI1 via the co-regulator RCAR11/PYR1, MUP dephosphorylation). Conditions: in a solution of DMSO and water; fluorescence at 460 nm.
T1 sequence (O49686 1-191): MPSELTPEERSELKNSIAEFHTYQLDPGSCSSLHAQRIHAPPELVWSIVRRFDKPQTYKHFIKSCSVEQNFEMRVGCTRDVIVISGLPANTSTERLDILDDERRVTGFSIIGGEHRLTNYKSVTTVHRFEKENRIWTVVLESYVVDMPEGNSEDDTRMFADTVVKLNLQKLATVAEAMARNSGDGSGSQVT
T1 sequence (P49597 1-434): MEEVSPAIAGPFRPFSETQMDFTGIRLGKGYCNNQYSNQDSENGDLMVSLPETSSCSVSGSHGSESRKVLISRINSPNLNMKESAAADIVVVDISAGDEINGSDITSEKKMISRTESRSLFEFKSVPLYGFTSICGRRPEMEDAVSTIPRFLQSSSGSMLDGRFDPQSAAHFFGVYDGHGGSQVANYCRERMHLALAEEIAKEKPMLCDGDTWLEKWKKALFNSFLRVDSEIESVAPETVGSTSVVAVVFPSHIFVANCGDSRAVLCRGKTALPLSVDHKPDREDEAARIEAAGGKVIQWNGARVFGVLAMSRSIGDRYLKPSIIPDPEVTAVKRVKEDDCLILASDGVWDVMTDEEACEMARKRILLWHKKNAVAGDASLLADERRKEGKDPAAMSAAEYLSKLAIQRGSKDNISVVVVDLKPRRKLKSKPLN
Format: biochemical
Parameters: dose or concentration left out as unconfirmed
From the text: Effects of the phytohormone abscisic acid (ABA) on the behavior of plants under abiotic stress and the mechanism of action of ABA are described in the literature (cf. Abrams et al., WO97/23441, Park et al. Science, 2009, 324, 1068; Grill et al. Science, 2009, 324, 1064; Tanokura et al. Biophysics, 2011, 7, 123; Schroeder et al. Plant J. 2010, 61, 290). Therefore, it is possible with the aid of a suitable in vitro test system to derive a correlation between the action of ABA and the stress response of a plant under abiotic stress. In the event of water deficiency (drought stress), plants form the phytohormone abscisic acid (ABA). This binds, along with a co-regulator (Regulatory Component of ABA-Receptor=RCAR according to Grill et al. Science, 2009, 324, 1064 or PYR/PYL according to Cutler et al. Science, 2009, 324, 1068), to a phosphatase (e.g. ABI1, a type 2C protein phosphatase, also abbreviated to PP2C) and inhibits its activity. As a result, a “downstream” kinase (e.g. SnRK2) is no longer dephosphorylated. This kinase, which is thus active, via phosphorylation of transcription factors (e.g. AREB/ABF, cf. Yoshida et al., 2010, 61, 672), switches on a genetic protection program to increase drought stress tolerance. The assay described hereinafter utilizes the inhibition of the phosphatase ABI1 via the co-regulator RCAR11/PYR1 aus Arabidopsis thaliana. For the determination of activity, the dephosphorylation of 4-methylumbelliferyl phosphate (MUP) was measured at 460 nm. The in vitro assay was conducted in Greiner 384-well PS microplates F-well, using two controls: a) 0.5% dimethyl sulfoxide (DMSO) and b) 5 μM abscisic acid (ABA). The assay described here was generally conducted with substance concentrations of the appropriate chemical test substances in a concentration range of 0.1 μM to 100 μM in a solution of DMSO and water. The substance solution thus obtained, if necessary, was stirred with esterase from porcine liver (EC 3.1.1.1) at room temperature for 3 h and centrifuged at 4000 rpm for 30 min. A total volume of 45 μl was introduced into each cavity of the microplate, having the following composition: • 1) 5 μl of substance solution, i.e. a) DMSO 5% or b) abscisic acid solution or c) the corresponding example compound of the general formula (I) dissolved in 5% DMSO. • 2) 20 μl of enzyme buffer mix, composed of a) 40% by vol. of enzyme buffer (10 mL contain equal proportions by volume of 500 mM Tris-HCl pH 8, 500 mM NaCl, 3.33 mM MnCl2, 40 mM dithiothreitol (DTT)), b) 4% by vol. of ABI1 dilution (protein stock solution was diluted so as to give, after addition, a final concentration in the assay of 0.15 μg ABI1/well), c) 4% by vol. of RCAR11 dilution (enzyme stock was diluted so as to give, on addition of the dilution to the enzyme buffer mix, a final concentration in the assay of 0.30 μg enzyme/well), d) 5% by vol. of Tween20 (1%), e) 47% by vol. H2O bi-dist. • 3) 20 μl of substrate mix, composed of a) 10% by vol. of 500 mM Tris-HCl pH8, b) 10% by vol. of 500 mM NaCl, c) 10% by vol. of 3.33 mM MnCl2, d) 5% by vol. of 25 mM MUP, 5% by vol. of Tween20 (1%), 60% by vol. of H2O bi-dist.
Enzyme buffer mix and substrate mix were made up 5 minutes prior to the addition and warmed to a temperature of 35° C. On completion of pipetting of all the solutions and on completion of mixing, the plate was incubated at 35° C. for 20 minutes. Finally, a relative fluorescence measurement was made at 35° C. with a BMG Labtech “POLARstar Optima” microplate reader using a 340/10 nm excitation filter and a 460 nm emission filter. The efficacy of the compounds of the general formula (I) is reported in the table which follows using abscisic acid […] as comparative substance (No. 37) according to the following classification: ++++ (inhibition≧90%), +++ (90%>inhibition≧70%), ++ (70%>inhibition≧50%), + (50%>inhibition≧30%). […]

Structure (SMILES) | ABI1 inhibition
N#CCCCN1C(=O)CCc2cc(NS(=O)(=O)Cc3ccc(C#N)cc3)ccc21 [A48-181] | ++++ (inhibition≧90%)
CCc1ccc(S(=O)(=O)Nc2ccc3c(c2)CCC(=O)N3CC2CCC2)cc1 [A21-601] | ++++ (inhibition≧90%)
COC(=O)CN1C(=O)CCc2cc(NS(=O)(=O)Cc3cccc(C)c3)ccc21 [A50-153] | ++ (70%>inhibition≧50%)
COC(=O)CN1C(=O)CCc2cc(NS(=O)(=O)Cc3ccccc3F)ccc21 [A50-161] | +++ (90%>inhibition≧70%)
COC(=O)CN1C(=O)CCc2cc(NS(=O)(=O)Cc3ccc(C#N)cc3)ccc21 [A50-181] | +++ (90%>inhibition≧70%)
CCc1ccc(S(=O)(=O)Nc2ccc3c(c2)CCC(=O)N3CC2CC2)cc1 [A19-601] | +++ (90%>inhibition≧70%)
O=C1CCc2cc(NS(=O)(=O)Cc3cccc(F)c3)ccc2N1CC1CCC1 [A21-159] | ++++ (inhibition≧90%)
COC(=O)CCN1C(=O)CCc2cc(NS(=O)(=O)Cc3ccccc3[N+](=O)[O-])ccc21 [A51-177] | ++ (70%>inhibition≧50%)
N#Cc1ccc(CS(=O)(=O)Nc2ccc3c(c2)CCC(=O)N3CC2CCCC2)cc1 [A22-181] | +++ (90%>inhibition≧70%)
CCc1ccc(CS(=O)(=O)Nc2ccc3c(c2)CCC(=O)N3CC2CCC2)cc1 [A21-325] | ++++ (inhibition≧90%)
COC(=O)CCN1C(=O)CCc2cc(NS(=O)(=O)Cc3ccccc3)ccc21 [A51-151] | +++ (90%>inhibition≧70%)
CCOCCN1C(=O)CCc2cc(NS(=O)(=O)Cc3ccc(C#N)cc3)ccc21 [A39-181] | +++ (90%>inhibition≧70%)
COCCN1C(=O)CCc2cc(NS(=O)(=O)Cc3ccc(C)cc3)ccc21 [A38-152, N-[1-(Methoxyethyl)-2-oxo-1,2,3,4-tetrahydroquinolin-6-yl]-1-(4-methylphenyl)methanesulfonamide] | ++++ (inhibition≧90%)
COC(=O)CN1C(=O)CCc2cc(NS(=O)(=O)CCc3ccc(Cl)cc3)ccc21 [A50-291] | ++ (70%>inhibition≧50%)
O=C1CCc2cc(NS(=O)(=O)Cc3ccc(Cl)cc3)ccc2N1CC1CC1(Cl)Cl (racemic) [A32-165] | ++ (70%>inhibition≧50%)
COC(=O)CN1C(=O)CCc2cc(NS(=O)(=O)Cc3ccccc3)ccc21 [A50-151] | ++ (70%>inhibition≧50%)
CC(C)(C)c1ccc(CS(=O)(=O)Nc2ccc3c(c2)CCC(=O)N3CC2CCC2)cc1 [A21-332] | ++++ (inhibition≧90%)
O=C1CCc2cc(NS(=O)(=O)Cc3ccc(Cl)cc3)ccc2N1CC1CC1 [A19-165] | ++++ (inhibition≧90%)
O=C1CCc2cc(NS(=O)(=O)Cc3ccc(F)cc3)ccc2N1CC1CC1(Cl)Cl (racemic) [A32-158] | + (50%>inhibition≧30%)
COC(=O)CN1C(=O)CCc2cc(NS(=O)(=O)Cc3cccc(Cl)c3)ccc21 [A50-166] | ++ (70%>inhibition≧50%)
O=C1CCc2cc(NS(=O)(=O)Cc3ccc(Cl)cc3)ccc2N1CC1CCC1 [A21-165] | ++++ (inhibition≧90%)
Cc1ccc(CS(=O)(=O)Nc2ccc3c(c2)CCC(=O)N3CC2CC2(Cl)Cl)cc1 (stereo not drawn) [A32-152] | ++ (70%>inhibition≧50%)
COC(=O)CCN1C(=O)CCc2cc(NS(=O)(=O)Cc3ccc([N+](=O)[O-])cc3)ccc21 [A51-175] | +++ (90%>inhibition≧70%)
Cc1ccc(CS(=O)(=O)Nc2ccc3c(c2)CCC(=O)N3CC2CCC2)cc1 [A21-152] | ++++ (inhibition≧90%)
COC(=O)CN1C(=O)CCc2cc(NS(=O)(=O)Cc3ccc(Cl)cc3)ccc21 [A50-165] | ++++ (inhibition≧90%)

The next lines start with the values.

ABI1 inhibition | Structure (SMILES)
++++ (inhibition≧90%) | O=C1CCc2cc(NS(=O)(=O)Cc3ccc(Br)cc3)ccc2N1CC(F)F [A1-172]
++++ (inhibition≧90%) | O=C1CCc2cc(NS(=O)(=O)Cc3ccc(Cl)cc3)ccc2N1CC(F)(F)C(F)(F)F [A10-165]
++ (70%>inhibition≧50%) | O=C1CCc2cc(NS(=O)(=O)Cc3ccc(C(F)(F)F)cc3)ccc2N1CC1CC1(Cl)Cl (stereo not drawn) [A32-178, N-[1-(2′,2′-Dichlorocyclopropylmethyl)-2-oxo-1,2,3,4-tetrahydroquinolin-6-yl]-1-(4-trifluoromethylphenyl)methanesulfonamide]
++ (70%>inhibition≧50%) | N#CCN1C(=O)CCc2cc(NS(=O)(=O)Cc3ccc(C(F)(F)F)cc3)ccc21 [A16-178]
++++ (inhibition≧90%) | N#Cc1ccc(CS(=O)(=O)Nc2ccc3c(c2)CCC(=O)N3CCC(F)(F)F)cc1 [A7-181]
++++ (inhibition≧90%) | O=C1CCc2cc(NS(=O)(=O)Cc3ccccc3)ccc2N1CC(F)(F)F [A2-151]
+++ (90%>inhibition≧70%) | COC(=O)CN1C(=O)CCc2cc(NS(=O)(=O)Cc3ccc(F)cc3)ccc21 [A50-158]
+++ (90%>inhibition≧70%) | O=C1CCc2cc(NS(=O)(=O)Cc3cccc(Br)c3)ccc2N1CC(F)(F)F [A2-173]
+++ (90%>inhibition≧70%) | O=C1CCc2cc(NS(=O)(=O)Cc3cccc(Cl)c3)ccc2N1CC(F)(F)F [A2-166]
+++ (90%>inhibition≧70%) | Cc1cccc(CS(=O)(=O)Nc2ccc3c(c2)CCC(=O)N3CC(F)(F)F)c1 [A2-153]
++++ (inhibition≧90%) | O=C1CCc2cc(NS(=O)(=O)Cc3ccc([N+](=O)[O-])cc3)ccc2N1CC(F)(F)F [A2-175]
++ (70%>inhibition≧50%) | O=C1CCc2cc(NS(=O)(=O)Cc3cccc(Br)c3)ccc2N1CC(F)F [A1-173]
++++ (inhibition≧90%) | O=C1CCc2cc(NS(=O)(=O)Cc3ccc(Br)cc3)ccc2N1CC(F)(F)F [A2-172]
++++ (inhibition≧90%) | N#Cc1ccc(CS(=O)(=O)Nc2ccc3c(c2)CCC(=O)N3CC(F)(F)C(F)(F)F)cc1 [A10-181]
++++ (inhibition≧90%) | O=C1CCc2cc(NS(=O)(=O)Cc3ccc(F)cc3)ccc2N1CC(F)(F)F [A2-158]
++ (70%>inhibition≧50%) | O=C1CCc2cc(NS(=O)(=O)Cc3ccccc3Cl)ccc2N1CC(F)(F)F [A2-168]
++++ (inhibition≧90%) | O=C1CCc2cc(NS(=O)(=O)Cc3ccc(Cl)cc3)ccc2N1CC(F)(F)F [A2-165]
